This is an account of results in PMC2228116 (British Journal of Cancer, 1997).

“And” between values parts separate entries of the source, which are not always exact repeats. Equal values may be shown once.

Data set [1] concerns isolated perfused rat liver. Description: in vitro. As to the method: (§1) British Joumal of Cancer (1997) 76(9), 1170-1180 ? […] Livers were perfused with 5-FU alone at a dose of 15 mg kg-' body weight or with 5-FU + GW776 at doses of 15 mg 5-FU kg-' body weight and 0.5 mg GW776 kg-' body weight injected 1 h before 5-FU. […] Keywords: 5-fluorouracil; 5-ethynyluracil (GW776); 19F nuclear magnetic resonance; modulation of 5-fluorouracil metabolism; fluoroacetate; 2-fluoro-3-hydroxypropionic acid; isolated perfused rat liver 5-Fluorouracil (5-FU) is one of the most commonly used anti- cancer agents for treatment of solid tumours. Common clinical adverse reactions include myelosuppression, diarrhoea, vomiting and mucositis. […] 5-Ethynyluracil (GW776) is a potent inactivator of the catabolic pathway of 5-FU acting on dihydropyrimidine dehydrogenase (DPD), the enzyme that converts 5-FU into its first catabolite, 5,6-dihydro-5-fluorouracil (FUH2), thereby preserving 5-FU from its rapid and extensive catabolism (Porter et al, 1992; Baccanari et al, 1993; Spector et al, 1993). […] MATERIALS AND METHODS IPRL experiments Livers from male Wistar rats (Iffa Credo, Lyon, France) were isolated and perfused with recirculation of the perfusion medium according to the design originally described by Brauer et al (1951) and modified by Sabouraud et al (1993). The recirculating perfusate (approximately 180 ml), oxygenated with oxygen- carbon dioxide (95%:5%), was a Krebs-Ringer bicarbonate buffer supplemented with glucose (1.3 mM) and bovine serum albumin (0.5%). The perfusate (pH 7.4) was recirculated at a mean flow rate of 10 ml min-1 g-' of liver. The experiments were carried out with solutions of 5-FU prepared immediately before use at a dose of 15 mg kg-' body weight.

The test system of data set [2] is DPD. Set-up: method as in Baccanari et al (1993). The settings on record: 1 h or 6 h after single dose GW776 2 mg kg-1 p.o.; compared with > 96% of this study; ref Baccanari et al (1993); cited from earlier work.
Data set [3] concerns dogs. Set-up: method as in Davis et al (1994). The following applies: 26-h continuous infusion of 5-FU at 1.6, 4 or 16 mg kg-1 24 h-1; ref Davis et al (1994); cited from earlier work.
The subject of data set [4] is mouse tumour models. Set-up: method as in Baccanari et al, 1993. The settings on record: ref Baccanari et al, 1993; cited from earlier work.
Data set [5] has as its system rat tumour models. Set-up: method as in Cao et al, 1994. The following applies: ref Cao et al, 1994; cited from earlier work.
For data set [6], the system named is MOPC-315 s.c. tumours. Set-up: method as in Davis et al (1995). The following applies: compared with mice treated with 5-FU alone; ref Davis et al (1995); cited from earlier work.
The test system of data set [7] is isolated perfused rabbit heart. Description: Cardiotoxicity on the isolated perfused rabbit heart model. The following applies: unpublished data.
Data set [8] in a line: Control experiments without liver: chemical transformation in perfusate (19F-NMR). The class given is physicochemical.
Details of data set [9]: method as in Zhang et al, 1992, 1993. The following applies: rats; ref Zhang et al, 1992, 1993; cited from earlier work.
Data set [10] can be described thus: in vitro. The settings on record: male, Wistar, rat, pH 7.4. As for the experimental part: as §1
In data set [11] the test system is isolated perfused rat liver. The experiment in a line: Liver viability in IPRL experiments (LDH activity in perfusate, bile flow). The settings on record: Table 1, text. As to the method:
as §1, with “The recirculating perfusate (approximately 180 ml), oxygenated with oxygen- carbon dioxide (95%:5%), was a Krebs-Ringer bicarbonate buffer supplemented with glucose (1.3 mM) and bovine serum albumin (0.5%). The perfusate (pH 7.4) was recirculated at a mean flow rate of 10 ml min-1 g-' of liver. The experiments were carried out with solutions of 5-FU prepared immediately before use at a dose of 15 mg kg-' body weight.” left out

Details of data set [12]: method as in Khor et al, 1996. The following applies: humans, without GW776; ref Khor et al, 1996; cited from earlier work.
The mark [13] stands for this setting: GW776 0.5 mg kg-1 1 h before 5-FU 15 mg kg-1.
Where [14] appears, read: FBAL 16.6 mg kg-1 circulated 3 h without liver, after concentration.
Where [15] appears, read: Table 4, liver acid-insoluble extract.

For the compound `C#Cc1c[nH]c(=O)[nH]c1=O` [GW776, 5-ethynyluracil], in data set [1] (GW776 0.5 mg kg-1 1 h before 5-FU), the “Inhibition of rat liver ability to catalyse 5-FU degradation” value is recorded as over 96%. In data set [1] (setting [13]), the “Decrease in FBAL formation” value is “approximately 110 factor”, the “Decrease in fluoride ion formation” value is “approximately 10 factor”, the “Decrease of the amount of 5-FU catabolites in the presence of GW776” value is on record as 27 factor and the “Increase of 5-FU anabolites” value is “approximately 7 factor”. Further, in data set [2], the “Inhibition of DPD activity in liver extracts” value is reported as “the same extent of inhibition”. Moreover, the “Protection from 5-FU-induced neurotoxicity” value in data set [3] is recorded as “protected dogs from the neurotoxicity”. Besides, the “Therapeutic index of 5-FU” value in data set [4] is recorded as “increases the therapeutic index of 5-FU”. The “Therapeutic index of 5-FU” value in data set [5] is “increases the therapeutic index of 5-FU”. Moreover, the “Incorporation of 5-FU into RNA in tumours” value in [6] is reported as “enhanced the incorporation”.
In the case of `O=C(O)C(F)CO` (stereo not drawn) [FHPA, 2-fluoro-3-hydroxypropionic acid], the Cardiotoxicity result is “did not generate cardiotoxic symptoms” in [7] (0.01 mg kg-1 (lowest dose)) and “highly cardiotoxic” in data set [7] (1.5 mg kg-1 (highest dose)).
With `NCC(F)C(=O)O` (stereo not drawn) [FBAL, alpha-fluoro-beta-alanine], in data set [8] (setting [14]), the “Adduct of FBAL with a-glucose as share of all the fluorinated compounds detected” value is 2.4%, the “Adduct of FBAL with beta-glucose as share of all the fluorinated compounds detected” value was 28.3%, the “CFBAL as share of all the fluorinated compounds detected” value was 49.6% and the “F- as share of all the fluorinated compounds detected” value worked out at 1.4%. In [8] (setting [14]), the “FBAL as share of all the fluorinated compounds detected” value turned out to be 18.3%. For the same compound, in data set [8] (solution of FBAL in perfusion medium over 3 h), the FBAL signal share amounted to 98.9%. Besides, the “Retention in various tissues (mainly liver, heart and brain)” value in data set [9] is listed as “up to 8 days”.
In the case of `O=c1[nH]cc(F)c(=O)[nH]1` [5-FU, 5-fluorouracil], the recovery in data set [10] was 0%. The “Unmetabolized 5-FU, global recovery” value in data set [1] is listed as “All 5-FU was metabolized”. Besides, in data set [1] (setting [15]), the “5', 2' and 3' FUMP in acid-insoluble extract” value is 0 Per cent of Injected dose; the “5-FU in acid-insoluble extract” value is given as 0 Per cent of Injected dose. In data set [1] (Table 4, liver acid-soluble extract), the “5-FU in acid-soluble extract” value is recorded as 0 Per cent of Injected dose. The “Total in acid-soluble extract” value in [1] (Table 4, liver acid-soluble extract, P<0.01) is 13 + 4 Per cent of Injected dose and 13 Per cent of Injected dose. Moreover, in data set [1] (male, Wistar, rat, pH 7.4), the 5-FU in perfusate is on record as 0 Per cent of Injected dose and the “Unmetabolized 5-FU” value is 0% of injected dose. Besides, in data set [11], the “LDH activity compared with control experiments” value was “no significant difference”. For the same compound, the “Chemical transformation in perfusate” value in data set [8] (perfusate bubbled with carbogen for 3 h at 37 C) is on record as “not chemically transformed”. For the same compound, the “Half-life of 5-FU” value in [12] is reported as “approximately 14 min”.
